# In patent US11535643B2, “Macrolides with modified desosamine sugars and uses thereof” (President and Fellows of Harvard College, priority 2015, dated 2022):
# Read-outs that look alike come from different tables or passages of the source.
# What was measured:
# Format in all cases: cell-based
# E. faecalis = experiment: Broth dilution MIC determination (CLSI) against E. faecalis strains; conditions: Enterococcus faecalis
# Procedure, shortened: (§1)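 MICs were determined by CLSI standard broth dilution against several strains per species, including multidrug-resistant and macrolide-resistant strains. Azithromycin and solithromycin served as control compounds.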
# E. coli = experiment: Broth dilution MIC determination (CLSI) against E. coli strains; conditions: Escherichia coli
# Procedure, shortened: as §1
# A. baumannii = experiment: Broth dilution MIC determination (CLSI) against A. baumannii strains; conditions: Acinetobacter baumannii
# Procedure, shortened: as §1
# K. pneumoniae = experiment: Broth dilution MIC determination (CLSI) against K. pneumoniae strains; conditions: Klebsiella pneumoniae
# Procedure, shortened: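 Azithromycin and solithromycin served as controls; MICs were obtained by standard CLSI broth dilution on a strain panel including multidrug-resistant and macrolide-resistant isolates.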
# S. pyogenes = experiment: Broth dilution MIC determination (CLSI) against S. pyogenes strains; conditions: Streptococcus pyogenes
# Procedure, shortened: as §1
# P. aeruginosa = experiment: Broth dilution MIC determination (CLSI) against P. aeruginosa strains
# Procedure, shortened: as §1
# S. pneumoniae = experiment: Broth dilution MIC determination (CLSI) against S. pneumoniae strains; conditions: Streptococcus pneumoniae
# Procedure, shortened: as §1
# S. aureus = experiment: Broth dilution MIC determination (CLSI) against S. aureus strains; conditions: Staphylococcus aureus
# Procedure, shortened: as §1
# H. influenzae = experiment: Broth dilution MIC determination (CLSI) against H. influenzae strains; conditions: Haemophilus influenzae
# Procedure, shortened: as §1
# [1] = ATCC29212, ATCC29212, read-out: MIC E. faecalis ATCC29212
# [2] = Vancomycin-resistant, read-out: MIC E. faecalis Vancomycin-resistant
# [3] = ATCC25922, ATCC25922, read-out: MIC E. coli ATCC25922
# [4] = read-out: MIC E. coli NDM-1, NDM-1
# [5] = ATCC19606, ATCC19606, read-out: MIC A. baumannii ATCC19606
# [6] = imipenem-resistant, read-out: MIC A. baumannii imipenem-resistant
# [7] = ATCC10031, ATCC10031, read-out: MIC K. pneumoniae ATCC10031
# [8] = KPC-2, read-out: MIC K. pneumoniae KPC-2
# [9] = ATCC19615, ATCC19615, read-out: MIC S. pyogenes ATCC19615
# [10] = macrolide-resistant, read-out: MIC S. pyogenes macrolide-resistant
# [11] = Pseudomonas aeruginosa, ATCC27853; read-out: MIC P. aeruginosa ATCC27853
# [12] = ATCC49619, ATCC49619, read-out: MIC S. pneumoniae ATCC49619
# [13] = erm B + mef A genotype, read-out: MIC S. pneumoniae erm B + mef A genotype
# [14] = erm B + tet(M, O) genotype, read-out: MIC S. pneumoniae erm B + tet(M, O) genotype
# [15] = read-out: MIC S. pneumoniae mef A genotype, mef A genotype
# [16] = read-out: MIC S. pneumoniae mef A genotype, mef A genotype, first of two such columns (c3)
# [17] = ATCC29213, ATCC29213, read-out: MIC S. aureus ATCC29213
# [18] = MRSA / USA100, MRSA: USA100, read-out: MIC S. aureus MRSA: USA100
# [19] = MRSA / USA300, MRSA: USA300, read-out: MIC S. aureus MRSA: USA300
# [20] = USA600, USA600, GISA, read-out: MIC S. aureus USA600, GISA
# [21] = read-out: MIC S. aureus erm A genotype
# [22] = ATCC49247, ATCC49247, read-out: MIC H. influenzae ATCC49247
# [23] = erythro > 4, azithro 1, read-out: MIC H. influenzae erythro > 4, azithro 1
SMILES,MIC (E. faecalis; [1]),MIC (E. faecalis; [2]),MIC (E. coli; [3]),MIC (E. coli; [4]),MIC (A. baumannii; [5]),MIC (A. baumannii; [6]),MIC (K. pneumoniae; [7]),MIC (K. pneumoniae; [8]),MIC (S. pyogenes; [9]),MIC (S. pyogenes; [10]),MIC (P. aeruginosa; [11]),MIC (S. pneumoniae; [12]),MIC (S. pneumoniae; [13]),MIC (S. pneumoniae; [14]),MIC (S. pneumoniae; [15]),MIC (S. pneumoniae; [16]),MIC (S. aureus; [17]),MIC (S. aureus; [18]),MIC (S. aureus; [19]),MIC (S. aureus; [21]),further results
C=CCOC(=O)NCC1CC(N(C)C)C(O)[C@H](O[C@@H]2[C@@H](C)C(=O)[C@@H](C)C(=O)O[C@H](CC)[C@@]3(C)OC(=O)N(CCCCn4cc(-c5cccc(N)c5)nn4)[C@@H]3[C@@H](C)NC[C@H](C)C[C@@]2(C)OC)O1 (stereo partly drawn) [FSM-21795],1 µg/mL,> 32 µg/mL,16 µg/mL,> 32 µg/mL,32 µg/mL,32 µg/mL,8 µg/mL,> 32 µg/mL,0.0625 µg/mL,2 µg/mL,32 µg/mL,0.25 µg/mL,> 32 µg/mL,0.0625 µg/mL,16 µg/mL,4 µg/mL,16 µg/mL,> 32 µg/mL,> 32 µg/mL,> 32 µg/mL,MIC (S. aureus; [20]): > 32 µg/mL; MIC (H. influenzae; [22]): 4 µg/mL; MIC (H. influenzae; [23]): 8 µg/mL
CC[C@H]1OC(=O)[C@H](C)C(=O)[C@H](C)[C@@H](O[C@@H]2OC(CNC=N)CC(N(C)C)C2O)[C@](C)(OC)C[C@@H](C)CN[C@H](C)[C@H]2N(CCCCn3cc(-c4cccc(N)c4)nn3)C(=O)O[C@]12C (stereo partly drawn) [FSM-21861],–,–,> 32 µg/mL,> 32 µg/mL,–,–,–,–,–,–,–,0.5 µg/mL,–,–,8 µg/mL,4 µg/mL,–,–,–,> 32 µg/mL,"MIC (E. faecalis; ATCC29212, read-out: MIC E. faecalis ATCC29212): 4 µg/mL; MIC (E. faecalis; read-out: MIC E. faecalis Vancomycin-resistant): > 32 µg/mL; MIC (A. baumannii; ATCC19606, read-out: MIC A. baumannii ATCC19606): > 32 µg/mL; MIC (A. baumannii; read-out: MIC A. baumannii imipenem-resistant): > 32 µg/mL; MIC (K. pneumoniae; ATCC10031, read-out: MIC K. pneumoniae ATCC10031): 16 µg/mL; MIC (K. pneumoniae; read-out: MIC K. pneumoniae KPC-2): > 32 µg/mL; MIC (S. pyogenes; ATCC19615, read-out: MIC S. pyogenes ATCC19615): 0.5 µg/mL; MIC (S. pyogenes; read-out: MIC S. pyogenes macrolide-resistant): 8 µg/mL; MIC (P. aeruginosa; Pseudomonas aeruginosa, ATCC27853, read-out: MIC P. aeruginosa ATCC27853): > 32 µg/mL; MIC (S. pneumoniae; read-out: MIC S. pneumoniae erm B + mef A genotype, erm B + mef A genotype): 32 µg/mL; MIC (S. pneumoniae; read-out: MIC S. pneumoniae erm B + tet(M, O) genotype, erm B + tet(M, O) genotype): 0.25 µg/mL; MIC (S. aureus; ATCC29213, read-out: MIC S. aureus ATCC29213): > 32 µg/mL; MIC (S. aureus; MRSA / USA100, read-out: MIC S. aureus MRSA: USA100): > 32 µg/mL; MIC (S. aureus; MRSA / USA300, read-out: MIC S. aureus MRSA: USA300): > 32 µg/mL; MIC (S. aureus; USA600, read-out: MIC S. aureus USA600, GISA): > 32 µg/mL; MIC (H. influenzae; ATCC49247, read-out: MIC H. influenzae ATCC49247): 32 µg/mL; MIC (H. influenzae; read-out: MIC H. influenzae erythro > 4, azithro 1): 32 µg/mL"
CC[C@H]1OC(=O)[C@H](C)C(=O)[C@H](C)[C@@H](O[C@@H]2OC(CNS(=O)(=O)c3cccnc3)CC(N(C)C)C2O)[C@](C)(OC)C[C@@H](C)CN[C@H](C)[C@H]2N(CCCCn3cc(-c4cccc(N)c4)nn3)C(=O)O[C@]12C (stereo partly drawn) [FSM-21876],2 µg/mL,> 32 µg/mL,32 µg/mL,> 32 µg/mL,> 32 µg/mL,32 µg/mL,16 µg/mL,32 µg/mL,0.0625 µg/mL,2 µg/mL,> 32 µg/mL,0.125 µg/mL,8 µg/mL,0.0313 µg/mL,16 µg/mL,4 µg/mL,16 µg/mL,> 32 µg/mL,> 32 µg/mL,> 32 µg/mL,MIC (S. aureus; [20]): > 32 µg/mL; MIC (H. influenzae; [22]): 4 µg/mL; MIC (H. influenzae; [23]): 16 µg/mL
